# Data: publication PMC8330100, “Similarities and differences in the localization, trafficking, and function of P-glycoprotein in MDR1-EGFP-transduced rat versus human brain capillary endothelial cell lines” (Fluids and Barriers of the CNS, 2021)
# Assays:
# [1] = target: Pgp in LLC-MDR1 monolayers (Homo sapiens, UniProt P08183); details: Rho123 2 µM
# [2] = target: T1, Pgp in RBE4-MDR1-EGFP cells (Homo sapiens, UniProt P08183); experiment: Rhodamine 123 uptake/accumulation assay, RBE4-MDR1-EGFP cells; assay type: cell-based, rat; details: RBE4-MDR1-EGFP in the presence of doxycycline; tariquidar 0.5 µM
# T1 construct: expressed in transfected cells; host or cells: RBE4 (rat BCEC line), lentiviral transduction, doxycycline-inducible
# Experimental: Piet Borst (The Netherlands Cancer Institute, Amsterdam, The Netherlands) as template. The linker sequence in the vector fusing EGFP and MDR1 consists of 36 bp ([…]). hCMEC/D3-WT, RBE4-WT, and hCMEC/D3-MDR1-EGFP cell lines were cultivated as previously described. The same culture conditions were used for the newly prepared RBE4-MDR1-EGFP cell line. As described previously, hydrocortisone (1.4 µM) was added to the culture medium to enhance the expression and functionality of Pgp and transendothelial resistance. All endothelial cell lines were grown on rat-tail collagen I (60 µg/mL, Gibco) coated 100 mm cultures dishes or permeable membrane supports at 37 °C and 5% CO2. Pgp-EGFP protein expression in MDR1-EGFP transduced cells was induced by cell cultivation in medium containing […] doxycycline. Expression of Pgp-EGFP was regularly verified by observing the cells with an inverted fluorescence microscope. Doxycycline supplementation of the medium was maintained during the whole culturing period of Pgp-EGFP expressing cells. For experiments, hCMEC/D3 and RBE4 cells were seeded in a density of 50,000 cells/cm^2. Immortalized MDR1 transfected porcine kidney LLC-PK1 (LLC-MDR1) cells, which were used as a reference standard for vectorial transport experiments, were kindly provided by Prof. Piet Borst. […]
# Pgp in primary rBCECs = experiment: Rhodamine 123 uptake/accumulation assay, primary rBCECs; assay type: cell-based, rat
# Excerpt: The RBE4 and hCMEC/D3 cell lines used here are immortalized, which has the advantage that these cells are stable for several passages and may yield a large number of endothelial cells with the same genetic and phenotypical characteristics. The immortalization status, however, causes several alterations as compared to the native original cell type, including low junctional tightness of cell monolayers and reduced expression of efflux transporters such as Pgp. Therefore, for comparison with the MDR1-EGFP transduced rat RBE4 cells, experiments were also performed with primary cultured rat brain capillary endothelial cells (rBCECs). As described by us previously, rBCECs were prepared following a protocol by Régina et al. and Perrière et al. from 2 to 3 weeks old Wistar rats (obtained from Charles River; Sulzfeld, Germany). All animals were treated according to protocols evaluated and approved by the ethical committee of our university. In short, meninges were removed from cerebral cortices in phosphate-buffered saline (PBS) with 1% penicillin (100 U/mL)/streptomycin (100 μg/mL) (Biochrom AG) on ice. Subsequently, cortices were mechanically dissociated with scalpels. […]
# The functionality of Pgp in RBE4-WT, RBE4-MDR1-EGFP, hCMEC/D3-WT, hCMEC/D3-MDR1-EGFP cells, and primary rBCECs was analyzed by measuring the uptake of the fluorescent Pgp substrate Rho123 (Sigma-Aldrich). […] Intracellular Rho123 concentration was determined by cell lysis in standard lysis buffer (25 mM Tris, 50 mM NaCl, 0.5% (w/v) sodium deoxycholate, 0.5% (w/v) Triton X-100) and measurement of fluorescence intensity with the FLUOstar OPTIMA (ex.: 485 nm, em.: 520 nm; BMG Labtech). Protein concentrations were determined using a BCA assay kit (Thermo Fisher Scientific). Rho123 uptake was obtained for each condition in triplicates and calculated as absolute fluorescence per mg protein. Additionally, Pgp functionality was expressed as multidrug resistance activity factor (MAF) as described by Huber et al.. […]
structure (smiles),measurement,setting,value
"COC(=O)c1ccccc1-c1c2ccc(=N)cc-2oc2cc(N)ccc12 [Rho123, rhodamine 123]",vectorial transport in CETA,[1],significant vectorial transport was observed
same,increase of Rho123 efflux (accumulation in absence vs presence of tariquidar),[2],~ 7 fold
same,intracellular Rho123 accumulation,"Pgp in primary rBCECs; Rho123 5 µM, 2 h, without tariquidar","56,482 ± 2456 absolute fluorescence per mg p"
same,multidrug resistance activity factor (MAF) from intracellular Rho123 accumulation,Pgp in primary rBCECs; with vs without tariquidar 0.5 µM,61.2% ± 2.7
